Reference: the NIST ThermoML archive (doi:10.1021/acs.jced.8b01220)
± gives the expanded uncertainty stated by the source.

Settings: Crystal; DSC

Triple point temperature: 295.75 ± 2 K
Compound: CC(C)(N)CO [2-amino-2-methylpropan-1-ol]
